Test results reported in PMC4008379, “Bioenergetics and Gene Silencing Approaches for Unraveling Nucleotide Recognition by the Human EIF2C2/Ago2 PAZ Domain” (PLoS ONE, 2014).
Like-named read-outs stand apart in the source and are kept apart here. One block for each compound: values may come before it.

Experiments:
Type in all cases: binding
[1] = target: T1, EIF2C2/Ago2 PAZ domain (Ago2PAZ) (Homo sapiens, UniProt Q9UKV8); assay: ITC displacement (UMP titrated into AMP-saturated protein); details: 25 mM potassium phosphate pH 7; 12°C; competition with UMP; unreliable (estimated, direct titration ND)
T1 construct: PAZ domain, residues 226-379, hexahistidine tag (pQE30, BamHI/HindIII), tag removal not mentioned; expressed in E. coli; Talon and Sephacryl S200HR
Excerpt: ITC displacement (UMP titrated into AMP-saturated protein) on EIF2C2/Ago2 PAZ domain (Ago2PAZ)

[2] = target: T1, EIF2C2/Ago2 PAZ domain (Ago2PAZ); assay: isothermal titration calorimetry
[3] = target: T1, EIF2C2/Ago2 PAZ domain (Ago2PAZ); assay: ITC displacement (UMP titrated into dAMP-saturated protein); details: 25 mM potassium phosphate pH 7; 12°C; competition with UMP; unreliable (estimated, direct titration ND)
Excerpt: ITC displacement (UMP titrated into dAMP-saturated protein) on EIF2C2/Ago2 PAZ domain (Ago2PAZ)

[4] = target: T1, EIF2C2/Ago2 PAZ domain (Ago2PAZ); assay: ITC displacement (UMP titrated into dCMP-saturated protein); details: 25 mM potassium phosphate pH 7; 12°C; competition with UMP; unreliable (estimated, direct titration ND)
Excerpt: ITC displacement (UMP titrated into dCMP-saturated protein) on EIF2C2/Ago2 PAZ domain (Ago2PAZ)

T1 sequence (Q9UKV8 227-379): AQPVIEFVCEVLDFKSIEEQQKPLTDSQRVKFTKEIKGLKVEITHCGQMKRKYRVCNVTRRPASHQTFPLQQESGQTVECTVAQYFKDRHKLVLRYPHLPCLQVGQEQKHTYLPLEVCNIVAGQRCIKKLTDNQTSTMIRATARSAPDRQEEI

- Estimated KB / M^-1 [1]: 143 M⁻¹
Structure (SMILES): Nc1ncnc2c1ncn2[C@@H]1O[C@H](COP(=O)(O)O)[C@@H](O)[C@H]1O [AMP]

- Kd ([2]; read-out: Kd /): 40 µM
Structure (SMILES): Nc1ccn([C@@H]2O[C@H](COP(=O)(O)O)[C@@H](O)[C@H]2O)c(=O)n1 [CMP]

- Kd ([2]; read-out: Kd /): 22 µM
Structure (SMILES): Nc1nc2c(ncn2[C@@H]2O[C@H](COP(=O)(O)O)[C@@H](O)[C@H]2O)c(=O)[nH]1 [GMP]

- Kd ([2]; read-out: Kd /): 232 µM
Structure (SMILES): Cc1cn([C@H]2C[C@H](O)[C@@H](COP(=O)(O)O)O2)c(=O)[nH]c1=O [TMP]

- Kd ([2]; 25 mM potassium phosphate pH 7, one-set-of-sites model, fitted n 2.2, read-out: Kd /): 15 µM
Structure (SMILES): O=c1ccn([C@@H]2O[C@H](COP(=O)(O)O)[C@@H](O)[C@H]2O)c(=O)[nH]1 [UMP]

- Kd ([2]; read-out: Ka (converted)): 58.8 µM
Structure (SMILES): Cc1cn([C@@H]2O[C@H](COP(=O)(O)O)[C@@H](O)[C@H]2O)c(=O)[nH]c1=O [compound 2, 5-Methyluridine-5′-O-monophosphate]

- Estimated KB / M^-1 [3]: 72 M⁻¹
Structure (SMILES): Nc1ncnc2c1ncn2[C@H]1C[C@H](O)[C@@H](COP(=O)(O)O)O1 [dAMP]

- Estimated KB / M^-1 [4]: 155 M⁻¹
Structure (SMILES): Nc1ccn([C@H]2C[C@H](O)[C@@H](COP(=O)(O)O)O2)c(=O)n1 [dCMP]

- Kd ([2]; read-out: Kd /): 40 µM
Structure (SMILES): Nc1nc2c(ncn2[C@H]2C[C@H](O)[C@@H](COP(=O)(O)O)O2)c(=O)[nH]1 [dGMP]
